Data reported in patent US20140249147A1, “Substituted Bicyclic Aza-Heterocycles and Analogues as Sirtuin Modulators” (GlaxoSmithKline, LLC, priority 2011, published 2014).

How the values were obtained:
[1] = biological target: T1, SIRT1 (Homo sapiens, UniProt Q96EB6); assay: TAMRA based mass spectrometry assay of SIRT1 activation; assay type: biochemical; conditions: TAMRA peptide substrate; for Emax: 25 min, percent maximum fold activation relative to control (100%), read-out: TAMRA % Fold Act; for TAMRA EC1.5 (μM): concentration giving 150% activation of SIRT1
T1 sequence (Q96EB6 1-747): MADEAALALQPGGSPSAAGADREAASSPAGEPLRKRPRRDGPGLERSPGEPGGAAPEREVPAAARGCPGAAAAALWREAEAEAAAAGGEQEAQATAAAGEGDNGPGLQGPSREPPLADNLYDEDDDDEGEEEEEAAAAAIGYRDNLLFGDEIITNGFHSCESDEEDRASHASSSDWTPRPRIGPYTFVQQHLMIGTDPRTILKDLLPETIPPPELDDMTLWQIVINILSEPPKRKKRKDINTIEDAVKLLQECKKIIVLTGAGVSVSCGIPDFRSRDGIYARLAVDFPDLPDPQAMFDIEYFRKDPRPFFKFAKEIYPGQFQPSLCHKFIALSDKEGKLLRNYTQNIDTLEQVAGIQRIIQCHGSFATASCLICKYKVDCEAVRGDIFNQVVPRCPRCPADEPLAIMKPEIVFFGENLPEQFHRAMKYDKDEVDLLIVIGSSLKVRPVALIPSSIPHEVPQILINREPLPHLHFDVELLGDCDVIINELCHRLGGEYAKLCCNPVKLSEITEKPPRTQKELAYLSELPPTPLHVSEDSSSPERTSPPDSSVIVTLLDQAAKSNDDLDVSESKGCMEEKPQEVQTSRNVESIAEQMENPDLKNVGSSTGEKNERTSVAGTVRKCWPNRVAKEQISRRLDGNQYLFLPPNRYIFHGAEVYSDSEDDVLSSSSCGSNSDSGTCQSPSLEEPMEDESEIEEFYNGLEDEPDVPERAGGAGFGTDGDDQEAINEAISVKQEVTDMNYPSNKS
Excerpt: (§1) Mass spectrometry based assays were used to identify modulators of SIRT1 activity. The TAMRA based assay utilized a peptide having 20 amino acid residues as follows: Ac-EE-K(biotin)-GQSTSSHSK(Ac)NleSTEG-K(5TMR)-EE-NH2 (SEQ ID NO: 1), wherein K(Ac) is an acetylated lysine residue and Nle is a norleucine. The peptide was labeled with the fluorophore 5TMR (excitation 540 nm/emission 580 nm) at the C-terminus. The sequence of the peptide substrate was based on p53 with several modifications. In addition, the methionine residue naturally present in the sequence was replaced with the norleucine because the methionine may be susceptible to oxidation during synthesis and purification. The Trp based assay utilized a peptide having an amino acid residues as follows: Ac—R—H—K—K(Ac)—W—NH2 (SEQ ID NO: 2).
The TAMRA based mass spectrometry assay was conducted as follows: 0.5 μM peptide substrate and 120 μM βNAD^+ was incubated with 10 nM SIRT1 for 25 minutes at 25° C. in a reaction buffer (50 mM Tris-acetate pH 8, 137 mM NaCl, 2.7 mM KCl, 1 mM MgCl2, 5 mM DTT, 0.05% BSA). The SIRT1 protein was obtained by cloning the SirT1 gene into a T7-promoter containing vector, which was then transformed and expressed in BL21(DE3) bacterial cells. Test compound was added at varying concentrations to this reaction mixture and the resulting reactions were monitored. After the 25 minute incubation with SIRT1, 10 μL of 10% formic acid was added to stop the reaction. The resulting reactions were sealed and frozen for later mass spec analysis. Determination of the amount of deacetylated substrate peptide formed (or, alternatively, the amount of O-acetyl-ADP-ribose (OAADPR) generated) by the sirtuin-mediated NAD-dependent deacetylation reaction allowed for the precise measurement of relative SIRT1 activity in the presence of varying concentrations of the test compound versus control reactions lacking the test compound.
(§2) A control for inhibition of sirtuin activity was conducted by adding 1 μL of 500 mM nicotinamide as a negative control at the start of the reaction (e.g., permits determination of maximum sirtuin inhibition). A control for activation of sirtuin activity was conducted using 10 nM of sirtuin protein, with 1 μL of DMSO in place of compound, to determine the amount of deacetylation of the substrate at a given time point within the linear range of the assay. This time point was the same as that used for test compounds and, within the linear range, the endpoint represents a change in velocity. For the above assay, SIRT1 protein was expressed and purified as follows. The SirT1 gene was cloned into a T7-promoter containing vector and transformed into BL21(DE3). The protein was expressed by induction with 1 mM IPTG as an N-terminal His-tag fusion protein at 18° C. overnight and harvested at 30,000×g. Cells were lysed with lysozyme in lysis buffer (50 mM Tris-HCl, 2 mM Tris[2-carboxyethyl]phosphine (TCEP), 10 μM ZnCl2, 200 mM NaCl) and further treated with sonication for 10 min for complete lysis. The protein was purified over a Ni-NTA column (Amersham) and fractions containing pure protein were pooled, concentrated and run over a sizing column (Sephadex S200 26/60 global). The peak containing soluble protein was collected and run on an Ion-exchange column (MonoQ). Gradient elution (200 mM-500 mM NaCl) yielded pure protein. This protein was concentrated and dialyzed against dialysis buffer (20 mM Tris-HCl, 2 mM TCEP) overnight. The protein was aliquoted and frozen at −80° C. until further use.
Sirtuin-modulating compounds of Formula (I) that activated SIRT1 were identified using the assay described above and are shown below in Table 1. The EC1.5 values represent the concentration of test compounds that result in 150% activation of SIRT1. The EC1.5 values for the activating compounds of Formula (I) are represented by A (EC1.5<1 μM), B (EC1.5 1-25 μM), C (EC1.5>25 μM). […]

[2] = biological target: T1, SIRT1; assay: Trp mass spectrometry assay of SIRT1 activation; assay type: biochemical; conditions: Trp peptide substrate
Excerpt: as §1
The Trp mass spectrometry assay was conducted as follows. 0.5 μM peptide substrate and 120 μM βNAD^+ were incubated with 10 nM SIRT1 for 25 minutes at 25° C. in a reaction buffer (50 mM HEPES pH 7.5, […], 1 mM DTT, 0.05% BSA). The SIRT1 protein was obtained by cloning the SirT 1 gene into a T7-promoter containing vector, which was then expressed in BL21(DE3) bacterial cells and purified as described in further detail below. Test compound was added at varying concentrations to this reaction mixture and the resulting reactions were monitored. After the 25 minute incubation with SIRT1, 10 μL of 10% formic acid was added to stop the reaction. The resulting reactions were sealed and frozen for later mass spec analysis. The relative SIRT1 activity was then determined by measuring the amount of O-acetyl-ADP-ribose (OAADPR) formed (or, alternatively, the amount of deacetylated Trp peptide generated) by the NAD-dependent sirtuin deacetylation reaction in the presence of varying concentrations of the test compound versus control reactions lacking the test compound. The degree to which the test agent activated deacetylation by SIRT1 was expressed as EC1.5 (i.e., the concentration of compound required to increase SIRT1 activity by 50% over the control lacking test compound), and Percent Maximum Activation (i.e., the maximum activity relative to control (100%) obtained for the test compound).
as §2
Sirtuin-modulating compounds of Formula (I) that activated SIRT1 were identified using the assay described above and are shown below in Table 1. […]

Emax [1]	TAMRA EC1.5 (μM) [1]	TYP EC1.5 (μM) ([2]; concentration giving 150% activation of SIRT1)	TYP % Fold Act ([2]; percent maximum fold activation relative to control (100%))	Structure (SMILES)
< 350%	C (EC1.5>25 μM)			O=C(Nc1ccccn1)c1ccc2nnc(-c3cccc(OC(F)(F)F)c3)n2n1 [Compound 2]
	C (EC1.5>25 μM)			O=C(Nc1ccccn1)c1ccc2nnc(-c3cccc(C(F)(F)F)c3)n2n1 [Compound 3]
< 350%				O=C(Nc1cccc(C(F)(F)F)n1)c1ccc2nnc(-c3cccc(F)c3)n2n1 [Compound 7]
< 350%	B (EC1.5 1-25 μM)			O=C(Nc1ccc(F)cn1)c1ccc2ncc(-c3cccc(C(F)(F)F)c3)n2n1 [Compound 11]
< 350%	B (EC1.5 1-25 μM)			O=C(Nc1ccnc(C(F)(F)F)c1)c1ccc2ncc(-c3ccccc3F)n2n1 [Compound 12]
< 350%	C (EC1.5>25 μM)			O=C(Nc1ccc2ncc(-c3ccccc3F)n2n1)c1cnccn1 [Compound 13]
< 350%	B (EC1.5 1-25 μM)			O=C(Nc1ccc2ncc(-c3cccc(F)c3)n2n1)c1nccs1 [Compound 17]
< 350%	B (EC1.5 1-25 μM)			O=C(Nc1ccc2ncc(-c3cccc(Cl)c3)n2n1)c1nccs1 [Compound 27]
< 350%	B (EC1.5 1-25 μM)			O=C(Nc1ccc2ncc(-c3cccc(C(F)(F)F)c3)n2n1)c1ccccn1 [Compound 31]
≥ 350%	A (EC1.5<1 μM)			O=C(Nc1ccc2ncc(-c3ccccc3Cl)n2n1)c1ncccn1 [Compound 33]
< 350%	A (EC1.5<1 μM)			Cn1ccc(C(=O)Nc2ccc3ncc(-c4cccc(Cl)c4)n3n2)n1 [Compound 35]
		C (EC1.5>25 μM)	B (Fold Activation <350%)	O=C(Nc1ccc2ncc(-c3cccc(C(F)(F)F)c3)n2n1)c1ncccn1 [Compound 39]
< 350%	C (EC1.5>25 μM)			Cn1ccc(C(=O)Nc2ccc3ncc(-c4cccc(F)c4)n3n2)n1 [Compound 43]
≥ 350%	A (EC1.5<1 μM)			O=C(Nc1ccnc(C2CCOCC2)c1)c1ccc2ncc(-c3cccc(C(F)(F)F)c3)n2n1 [Compound 47]
< 350%	C (EC1.5>25 μM)			O=C(Nc1ccnc(C(F)(F)F)c1)c1ccc2ncc(-c3cccc(F)c3)n2n1 [Compound 50]

Further lines, the molecule ahead of its results:

Structure (SMILES)	Emax [1]	TAMRA EC1.5 (μM) [1]	TYP EC1.5 (μM) ([2]; concentration giving 150% activation of SIRT1)	TYP % Fold Act ([2]; percent maximum fold activation relative to control (100%))
O=C(Nc1cccc(C(F)(F)F)n1)c1ccc2ncc(-c3ccccc3F)n2n1 [Compound 9]	< 350%	B (EC1.5 1-25 μM)		
O=C(Nc1ccc2ncc(-c3cccc(F)c3)n2n1)c1cnccn1 [Compound 20]	< 350%	B (EC1.5 1-25 μM)		
O=C(Nc1ccc2ncc(-c3ccccc3Cl)n2n1)c1nccs1 [Compound 24]	< 350%	B (EC1.5 1-25 μM)		
O=C(Nc1ccc2ncc(-c3ccccc3F)n2n1)c1ncccn1 [Compound 25]	< 350%	B (EC1.5 1-25 μM)		
O=C(Nc1ccc2ncc(-c3cccc(F)c3)n2n1)c1ccccn1 [Compound 28]	< 350%	B (EC1.5 1-25 μM)		
O=C(Nc1ccnc(C(F)(F)F)c1)c1ccc2ncc(-c3ccccc3Cl)n2n1 [Compound 29]	< 350%	B (EC1.5 1-25 μM)		
O=C(Nc1ccc2ncc(-c3cccc(Cl)c3)n2n1)c1ccccn1 [Compound 30]	< 350%	B (EC1.5 1-25 μM)		
O=C(Nc1cccc(N2CCOCC2)n1)c1ccc2ncc(-c3ccccc3F)n2n1 [Compound 32]	< 350%	C (EC1.5>25 μM)		
O=C(Nc1ccc2ncc(-c3cccc(Cl)c3)n2n1)c1cnccn1 [Compound 34]	< 350%	A (EC1.5<1 μM)		
Cn1ccc(C(=O)Nc2ccc3ncc(-c4ccccc4F)n3n2)n1 [Compound 36]	< 350%	A (EC1.5<1 μM)		
O=C(Nc1ccc2ncc(-c3cccc(Cl)c3)n2n1)c1ncccn1 [Compound 37]	< 350%	B (EC1.5 1-25 μM)		
Cn1ccc(C(=O)Nc2ccc3ncc(-c4cccc(C(F)(F)F)c4)n3n2)n1 [Compound 40]	< 350%	C (EC1.5>25 μM)		
O=C(Nc1ccc2ncc(-c3ccccc3Cl)n2n1)c1ccccn1 [Compound 41]	< 350%	C (EC1.5>25 μM)		
CS(=O)(=O)c1cccc(-c2nnc3ccc(C(=O)Nc4nccs4)nn23)c1 [Compound 42]	< 350%	C (EC1.5>25 μM)		
Cn1ccc(C(=O)Nc2ccc3ncc(-c4ccccc4Cl)n3n2)n1 [Compound 45]	< 350%	C (EC1.5>25 μM)		
O=C(Nc1cccc(N2CCOCC2)n1)c1ccc2ncc(-c3cccc(Cl)c3)n2n1 [Compound 46]	< 350%	B (EC1.5 1-25 μM)		
O=C(Nc1nccs1)c1ccc2nnc(-c3cccc(C(F)(F)F)c3)n2n1 [Compound 49]	< 350%	C (EC1.5>25 μM)		
